Experimental data from patent US8664251B1, “Ryanodine receptor inhibitors for treatment of T-cell mediated disorders” (The Regents of the University of California, priority 2009, dated 2014).

Key:
Jurkat T cells [1] = test: Manganese quench of fura-2 fluorescence (divalent cation influx via SOC channels); format: cell-based, human; settings: Jurkat T cells preincubated 30 min with 400 μM Ry; with or without 30 μM CPA; n=5
Description: Because Mn^2+ readily passes through SOC channels (Missiaen, L., Declerck, I., Droogmans, G., Plessers, L., De Smedt, H., Raeymaekers, L., and Casteels, R. (1990) J Physiol 427, 171-186) and is unlikely to be transported from the cytosol (Chiesi, M., and Inesi, G. (1980) Biochemistry 19(13), 2912-2918; Chiesi, M., and Inesi, G. (1981) Arch Biochem Biophys 208(2), 586-592), the rate of fura-2 quenching in the presence of Mn^2+ was used as a measure of divalent cation influx into the bulk cytoplasm in intact cells. The extracellular solution used in all Mn^2+ quench experiments contained (in mM): 130 NaCl, 5.6 KCl, 1 MgCl2, 0.3 CaCl2, 0.5 MnCl2, 10 HEPES, 10 D-glucose; pH 7.3. Changes in Ca^2+-independent fluorescence due to Mn^2+ quench were determined using method described by Zhou & Neher (Zhou, Z., and Neher, E. (1993) J Physiol 469, 245-273). Briefly, background corrected fura-2 fluorescence excited at 340 nm (F340) was plotted against background corrected fura-2 fluorescence excited at 380 nm (F380) during the initial 10 seconds following application of 30 μM cyclopiazonic acid (CPA). The slope of the F340 versus F380 relationship equals the ‘isocoefficient’ α. The fluorescence value, Fi, which is unaffected by changes in [Ca^2+]i, was determined as: […]. […]

activated human T cells = test: Fura-2 calcium imaging in activated human T cells; format: cell-based; settings: for [Ca^2+]i elevation evoked by readdition of extracellular Ca^2+ ([Ca^2+]SOCE): activated T cells preincubated 30 min with 500 μM Ry or 30 μM Da, p<0.01, n=7
Procedure: (§1) All studies involving human subjects were performed after approval by UC Davis Institutional Review Board and after all subjects gave written informed consent. Resting CD3^+ human lymphocytes were isolated from the peripheral blood of healthy consented adults using RosetteSep™ human lymphocyte enrichment kit (Stem Cell Tech.) following the manufacturer's instructions. Resting T cells were resuspended at 0.5−1×10^6 cells/ml in […] medium supplemented with 10 mM HEPES, 10% fetal bovine serum, 2% L-glutamine, 2% vitamins solution, 1% RPMI amino acids solution, and 0.01% β-mercaptoethanol and maintained in suspension in 5% CO2 at 37° C. Resting T cells were activated on the day of isolation by incubation with either PHA ([…]) or anti-CD3 antibody coated onto the tissue culture plates and soluble anti-CD28 antibody (5 m/ml; BD Biosciences). Resting T cells were taken for analysis on the day of isolation, whereas activated T cells were tested 4-5 days after activation.
Cell cultures and chemicals were as described in the Example 1. Before experiment, cells were plated on poly-l-lysine-coated glass-bottom clambers and then loaded with 1 μM fura-2/AM and pluronic F-127 for 5 min in modified Tyrode solution containing (in mM): 130 NaCl, 5.6 KCl, 1 MgCl2, 2 CaCl2, 10 HEPES, 10 D-glucose; pH 7.3. After washing, cells were incubated for additional 30 min at 37° C. […] In nominally Ca^2+-free solution, Ca^2+ was omitted.
Fluorescence images were acquired from adherent cells using a SenSys CCD camera (Roper Scientific, Tucson, Ariz.) and a 40× oil immersion Zeiss objective on a Zeiss Axiovert 200 inverted microscope (Thornwood, N.Y.). Lambda DG-4 filter changer (Sutter Instrument, Novato, Calif.) was used for switching between 340 and 380 nm excitation wavelengths. All experiments were performed at room temperature. Solution exchange was performed via a gravity-driven perfusion system. Solution exchange in the recording chamber was completed within 5 s. […] Unless otherwise indicated, in each experiment changes in [Ca^2+]i were recorded from 15-20 cells and then averaged.

resting human T cells = test: Fura-2 calcium imaging in resting human T cells; format: cell-based; settings: resting T cells preincubated 30 min with 30 μM Da or 500 μM Ry; CPA then Ca^2+ readdition
Procedure: as §1
Cell cultures and chemicals were as described in the Example 1. […]
Fluorescence images were acquired from adherent cells using a SenSys CCD camera (Roper Scientific, Tucson, Ariz.) and a 40× oil immersion Zeiss objective on a Zeiss Axiovert 200 inverted microscope (Thornwood, N.Y.). […] Unless otherwise indicated, in each experiment changes in [Ca^2+]i were recorded from 15-20 cells and then averaged.

Jurkat T cells [2] = test: IL-2 production assay (ELISA), PHA-stimulated Jurkat T cells; format: cell-based, human; settings: Ry 400 μM or Da 30 μM applied 30 min prior to PHA, 24 hours, p<0.01, n=6
Procedure: Jurkat T cells were washed 3 timed with PBS and resuspended in FBS-free cell culture media at density 0.8×10^6 cells/ml and seeded into 96 well tissue culture plate (0.4 ml per well) and then stimulated with […] mitogenic lectin phytohaemagglutinin P (PHA). Some cells were pre-incubated for 30 min at 37° C. with, Ry (400 μM), or dantrolene (30 μM) prior to stimulation with PHA. After 24 hours of incubation, cells culture supernatants were collected and contents of IL-2 was determined by ELISA using Quantikine kits (R&D systems, Minneapolis, Minn.) according to manufacturer instructions.

Jurkat T cells [3] = test: Fura-2 calcium imaging in Jurkat T cells; format: cell-based, human
Procedure: Cell cultures and chemicals were as described in the Example 1. Before experiment, cells were plated on poly-l-lysine-coated glass-bottom clambers and then loaded with 1 μM fura-2/AM and pluronic F-127 for 5 min in modified Tyrode solution containing (in mM): 130 NaCl, 5.6 KCl, 1 MgCl2, 2 CaCl2, 10 HEPES, 10 D-glucose; pH 7.3. After washing, cells were incubated for additional 30 min at 37° C. Some cells were incubated in Modified Tyrode solution containing 400 μM Ry, 30 μM dantrolene, or vehicles (methanol or, ethanol, or DMSO) alone for 30 min at 37° C. In nominally Ca^2+-free solution, Ca^2+ was omitted.
Fluorescence images were acquired from adherent cells using a SenSys CCD camera (Roper Scientific, Tucson, Ariz.) and a 40× oil immersion Zeiss objective on a Zeiss Axiovert 200 inverted microscope (Thornwood, N.Y.). Lambda DG-4 filter changer (Sutter Instrument, Novato, Calif.) was used for switching between 340 and 380 nm excitation wavelengths. All experiments were performed at room temperature. Solution exchange was performed via a gravity-driven perfusion system. Solution exchange in the recording chamber was completed within 5 s. The vehicles-containing solutions (methanol or DMSO) were applied in place of the drugs in all control experiments. Data acquisition was performed using MetaFluor v7.0 software (Universal Imaging, Downingtown, Pa.). [Ca^2+]i values were estimated from fura-2 calibration as described previously (Grynkiewicz, G., Poenie, M., and Tsien, R. Y. (1985) J Biol Chem 260(6), 3440-3450). Kd was taken as 248 nM (Fanger, C. M., Neben, A. L., and Cahalan, M. D. (2000) J Immunol 164(3), 1153-1160). Unless otherwise indicated, in each experiment changes in [Ca^2+]i were recorded from 15-20 cells and then averaged.

Jurkat T cells [4] = test: CFSE proliferation assay, Jurkat T cells; format: cell-based, human; settings: 400 μM Ry or 30 μM Da, 72 hours
Procedure: (§2) Cell cultures and chemicals were as described in the Example 1. Proliferation assay—Cell division track assay was conducted using carboxyfluorescein succinimidyl ester (CFSE) proliferation kit (Molecular probes). Stock solution of CFSE (4 mM) was prepared in DMSO. Cells were washed, resuspended in PBS containing 4 μM CFSE at density 1×10^6 cells/ml, and incubated at 37° C. for 10 min. Labeling was quenched by adding 5× volume of RPMI 1640 culture media containing 10% FBS. After washing 3 times with RPMI 1640+10% FBS, cells were placed into FBS-free cell culture media to abolish cell division and kept overnight in 5% CO2 at 37° C. After overnight incubation, the CFSE-labeled cells were pellet down and fraction of them (˜50000) were fixed with 1% paraformaldehyde in PBS and analyzed by flow cytometry to establish the CFSE fluorescence profile of undivided cells. […] Fluorescence intensity was measured at 488 nm using FACScan flow cytometer and CellQuest software (Becton Dickinson Bioscience, Mountain View, Calif.). The number of cell divisions was calculated using FlowJo software (Tree Star Inc, Ashland, Oreg.). […]
(§3) Freshly isolated CD3^+ resting human T cells or Jurkat T cells were loaded with CFSE and fraction of them was fixed with 1% paraformaldehyde in PBS and analyzed by flow cytometry to establish the CFSE fluorescence profile of undivided cells (time 0). […]

human T cells = test: CFSE proliferation assay, human T cells activated with anti-CD3/CD28 Ab; format: cell-based; settings: 400 μM Ry or 30 μM Da; anti-CD3/CD28 Ab activation
Procedure: as §2, §3

murine T cell [5] = settings: murine T cells; cited from earlier work
murine T cell [6] = settings: cited from earlier work

Molecule | divalent cation influx (Mn^2+ quench of fura-2 fluorescence) (Jurkat T cells [1]) | [Ca^2+]i elevation evoked by readdition of extracellular Ca^2+ ([Ca^2+]SOCE) (activated human T cells) | time courses of changes in [Ca^2+]i (resting human T cells) | PHA-induced IL-2 production (Jurkat T cells [2]) | PHA-induced [Ca^2+]i transients in the absence of extracellular Ca^2+ (Jurkat T cells [3]; Jurkat T cells preincubated with 400 μM Ry) | CPA-induced [Ca^2+]i transients following PHA in the absence of extracellular Ca^2+ (Jurkat T cells [3]; Jurkat T cells preincubated with 400 μM Ry, 30 μM CPA) | reduction of maximal amplitudes of [Ca^2+]i transients during Ca^2+ readdition following TCR stimulation (Jurkat T cells [3]; Jurkat T cells preincubated with 400 μM Ry, PHA then 0.5 mM Ca^2+ readdition) [%] | [Ca^2+]i transients evoked by Ca^2+ readdition ([Ca^2+]SOCE) (Jurkat T cells [3]; Jurkat T cells preincubated with Ry, 2 mM Ca^2+ readdition after CPA, p<0.01, n=6) | store refilling (CPA2/CPA1 ratio) (Jurkat T cells [3]; Jurkat T cells preincubated with Ry, p<0.01, n=6) | Ca^2+ release on extracellular (acute) application (Jurkat T cells [3]; Ry 400 applied in nominally Ca^2+-free extracellular solution, Jurkat T cells, n=5) | Jurkat T cell proliferation (CFSE fluorescence profile) (Jurkat T cells [4]) | normal human activated T cell proliferation (CFSE fluorescence profile) (human T cells) | Ca^2+ liberation from the ryanodine-sensitive store (activated human T cells; caffeine 20 mM, activated human T cells, normal Tyrode solution) | IL-2 production following TCR stimulation (murine T cell [5]) | murine T cell proliferation following TCR stimulation (murine T cell [6])
ryanodine | does not induce Ca^2+ release (FIG. 2 D) or affect divalent ction influx | reduced | did not affect | significantly inhibited | did not significantly affect | did not significantly affect | 42 | significantly downregulated | facilitated store refilling | does not induce Ca^2+ release | inhibit | inhibit |  |  | 
Cn1c(=O)c2c(ncn2C)n(C)c1=O [caffeine] |  |  |  |  |  |  |  |  |  |  |  |  | produced Ca^2+ liberation |  | 
N.N.N.N.N.N.N.N.N.N.N.N.N.N.[Cl-].[Cl-].[Cl-].[Cl-].[Cl-].[Cl-].[O-2].[O-2].[Ru+3].[Ru+3].[Ru+4] [ruthenium red] |  |  |  |  |  |  |  |  |  |  |  |  |  | inhibit | inhibit
O=C1CN(N=Cc2ccc(-c3ccc([N+](=O)[O-])cc3)o2)C(=O)N1 [dantrolene, 1-[[[5-(4-nitrophenyl)-2-furanyl]methylene]amino]-2,4-imidaz olidinedione] |  | reduced | did not affect | significantly inhibited |  |  |  |  |  |  | inhibit | inhibit |  | inhibit | inhibit
